The text below walks through data of patent publication US10968183B2, “Small molecule FIEL1 inhibitor in inflammatory and fibrotic lung injury” (UNIVERSITY OF PITTSBURGH—OF THE COMMONWEALTH SYSTEM OF …, priority 2015, dated 2021).

For one experiment, the system named is KIAA0317 and PIAS4 mRNA. The experiment is described as follows: PIAS4 and KIAA0317 mRNA analysis (RT-qPCR). The format is cell-based. The note with it: treatment for 18 h; FIG. 15G. How it is done:
(§1) FIG. 15A. Diagram of the BC-1485 synthesis process. FIGS. 15B-15C. Docking studies of the lead compound, BC-1485, interacting with the FIEL1-HECT domain. FIG. 15D. MRC5 cells were treated with the compound at various doses; cells were also co-treated with TGFβ at 2 ng/ml. 18 h later, cells were collected and assayed for α-SMA expression. FIG. 15E. MRC5 cells were seeded in 35 mm glass bottom dishes before co-treatment with TGFβ at 2 ng/ml and BC-1480 or BC1485 at 5μM. FIG. 15F. PIAS4 protein half-life determination after BC-1480 or BC1485 treatment at 5μM for 18 h. FIG. 15G. PIAS4 and KIAA0317 mRNA analysis after BC1485 treatment for 18 h.
Total RNA was isolated and reverse transcription was performed followed by real-time quantitative PCR with SYBR Green qPCR mixture as described in Butler et al. J. Biol. Chem. 2010, […]: 6246-6258. All mutant PIAS4 and KIAA0317 plasmid constructs were generated using PCR-based approaches and appropriate primers and subcloned into a pcDNA3.1D/V5-HIS vector.
For orientation: Quantitative PCR measures a nucleic acid by following its amplification.

A further experiment concerns the target T1, FIEL1/PIAS4 interaction (Homo sapiens, UniProt O15033).
T1 construct: made in house; host or cells: 293T cells (FIEL1)
T1 sequence (O15033 1-789 isoform O15033-2): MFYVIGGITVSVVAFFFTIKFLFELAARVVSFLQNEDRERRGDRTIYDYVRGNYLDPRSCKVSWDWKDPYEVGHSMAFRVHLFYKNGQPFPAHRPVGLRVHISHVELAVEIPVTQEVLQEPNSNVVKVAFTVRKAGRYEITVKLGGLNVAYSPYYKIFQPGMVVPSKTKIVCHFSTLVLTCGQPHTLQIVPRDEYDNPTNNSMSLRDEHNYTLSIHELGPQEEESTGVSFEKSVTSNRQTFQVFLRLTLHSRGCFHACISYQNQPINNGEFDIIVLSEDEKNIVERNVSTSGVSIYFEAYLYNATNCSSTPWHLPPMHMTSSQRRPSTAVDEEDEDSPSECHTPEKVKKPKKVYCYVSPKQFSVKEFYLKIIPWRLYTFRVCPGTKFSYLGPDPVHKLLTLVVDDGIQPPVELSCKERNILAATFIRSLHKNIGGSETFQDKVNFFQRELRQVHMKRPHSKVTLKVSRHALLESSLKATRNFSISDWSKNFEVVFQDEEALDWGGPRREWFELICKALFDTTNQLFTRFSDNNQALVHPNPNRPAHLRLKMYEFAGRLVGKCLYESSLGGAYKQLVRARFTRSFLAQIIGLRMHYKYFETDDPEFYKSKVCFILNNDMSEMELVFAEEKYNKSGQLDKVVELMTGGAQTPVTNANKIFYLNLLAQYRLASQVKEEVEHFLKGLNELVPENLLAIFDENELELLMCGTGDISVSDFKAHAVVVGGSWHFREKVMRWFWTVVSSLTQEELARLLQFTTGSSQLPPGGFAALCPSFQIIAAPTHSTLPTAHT
The experiment is described as follows: In vitro drug binding assay: PIAS4 pull-down on drug-bound FIEL1 beads. How it is done: FIG. 7A. […] FIG. 7B. Structures of the BC-1480 backbone and lead compound BC-1485. FIG. 7C. FIEL1 protein was HIS-purified from FIEL1 expression in 293T cells using cobalt beads. Beads were then extensively washed prior to exposure to BC-1480 or BC-1485 at different concentrations (10^−4 to 100 μM). Purified PIAS4 protein was then incubated with drug-bound FIEL1 beads overnight. Beads were washed, and proteins were eluted and resolved on SDS-PAGE. The relative amounts of PIAS4 detected in the pull-downs was normalized to loading and quantified (n=2). FIG. 7D. MLE cells were exposed to BC-1480 or BC-1485 at various concentrations for 18 h. Cells were then collected and immunoblotted. FIGS. 7E-J. C57BL/6J mice were administered with bleomycin (0.05 U) for 7-21 days. Compounds BC-1480 and BC-1485 were given to mice through drinking water with an estimated dose of 5 mg/kg/d. Mice were euthanized, and lungs were lavaged with saline, harvested, and then homogenized. Lavage proteins, CXCL1, and total cell count were measured in FIGS. 7E-G. H. Survival studies of mice that were given bleomycin and compound treatments. Mice were carefully monitored over time; moribund, preterminal animals were immediately euthanized and recorded as deceased. Kaplan-Meier survival curves were generated using SPSS software (p<0.01 compared to Vehicle). Vehicle: n=24, BC-1480: n=13, BC-1485: n=12. FIG. 7I. Hydroxyproline contents were measured in lungs from 7, 14, and 21d after bleomycin challenge. FIG. 7J. Trichrome staining was performed on lung samples from E. Original magnification, ×10. *p<0.05 compared to Vehicle (t-test). Data are an average of two experiments (FIGS. 7E-J, 4-8 mice/group)
FIEL1 protein was HIS-purified from FIEL1 expression 293T cells using cobalt beads. Beads were then extensively washed prior to exposure to BC-1480 or BC-1485 at different concentrations (10^−4 to 100 μM). Purified recombinant PIAS4 protein was then incubated with drug-bound FIEL1 beads overnight. […] The relative amounts of PIAS4 detected in the pull-downs were normalized to loading and quantified.

In experiment [1] the test system is α-SMA expression in MRC5 cells. The experiment is described as follows: α-SMA expression in MRC5 cells co-treated with TGFβ. The format is cell-based, human. How it is done: as §1
MLE cells were cultured in Dulbecco's Modified Eagle Medium-F12 (Gibco) supplemented with 10% fetal bovine serum (DMEM-10). 293T cells were cultured in Dulbecco's Modified Eagle Medium (Gibco) supplemented with 10% fetal bovine serum (DMEM-10). MRC5 cells were cultured in Eagle's Minimum Essential Medium (Gibco) supplemented with 10% fetal bovine serum (EMEM-10). For protein expression in MLE cells, nucleofection was used following Amaxa's protocol. For protein overexpression in 293T cells, Fugene6HD transfection reagents were used following the manufacturer's protocol. For protein expression in MRC5 cells, MRC-5 Cell Avalanche™ Transfection Reagent was used following manufacturer's protocol. Cells were treated with TGFβ at 0-2 ng/ml for 0-18 h. For FIEL1, PKCξ, or GSK3β knockdown studies in cells, scramble shRNA, KIAA0317, PKCξ, or GSK3β shRNA were used to transfect cells for 48 h. For drug treatment, compounds were solubilized in DMSO before being added to the cells for up to 18 h. Cell lysates were prepared by brief sonication in 150 mM NaCl, 50 mM Tris, 1.0 mM EDTA, 2 mM dithiothreitol, 0.025% sodium azide, and 1 mM phenylmethylsulfonyl fluoride (Buffer A) at 4° C. For half-life study, MLE cells were exposed to cycloheximide (40 μg/ml) in a time dependent manner for up to 8 h. Cells were then collected and immunoblotted.

SMILES strings stand for the structures.

The IC50 is the concentration that inhibits the measured activity by half.

As for `CC(NC(=O)c1ccc(NS(=O)(=O)c2ccc3[nH]c(=O)[nH]c3c2)cc1)C(=O)N(C)C` (stereo not drawn) [BC-1485], in the experiment on KIAA0317 and PIAS4 mRNA, the “KIAA0317 mRNA levels” value is on record as “did not significantly alter” and the “PIAS4 mRNA levels” value is recorded as “did not significantly alter”. Moreover, on FIEL1/PIAS4 interaction (10^−4 to 100 μM compound on FIEL1 beads, FIG. 7C), the “activity in disrupting the FIEL1/PIAS4 interaction compared to BC-1480” value is over 100 fold. For the same compound, the “inhibition of FIEL1 and PIAS4 interaction” value at FIEL1/PIAS4 interaction (FIG. 7) is “inhibition of FIEL1 and PIAS4 interaction”. Further, in experiment [1] (FIG. 15), the “inhibition of TGFβ pathway” value is on record as “inhibition of TGFβ pathway”. For the same compound, in experiment [1] (MRC5 cells, TGFβ 2 ng/ml, 18 h, FIG. 15D, read-out: IC50 for decrease of α-SMA expression), the IC50 was about 32 nM.
